Measured values as given in patent US20240382730A1, “FLEXIBLE MICRONEEDLE ARRAY PATCH FOR CHRONIC WOUND OXYGENATION AND BIOFILM ERADICATION” (Purdue Research Foundation, priority 2021, published 2024).

Tested on: S. aureus mature biofilm
Assay: Colony biofilm model, mature biofilm
Assay type: cell-based, Staphylococcus aureus
Conditions: FIG. 9a; powder amount estimated equal to that in the CPO-loaded MN sample, 24 h
Procedure: Biofilm Antibacterial Studies. Antibiofilm activity of MNs loaded with CPO was evaluated by the colony biofilm model. Overnight cultures of S. aureus and P. aeruginosa were diluted to 2×10^5 CFU mL−1 with TSB. Next, 50 μL of the diluted bacterial suspension was inoculated onto sterile 10 mm nitrocellulose disks placed on the surface of tryptic soy agar (TSA) plates. To allow biofilm development on the nitrocellulose membrane, the plates were incubated at 37° C. for 72 h. The developed biofilm was then nourished by aseptically transferring to new TSA plates every day for 4 days.31,38 After maturation of the biofilms, 12 mm disks of MNs loaded with CPO and control samples including PET films, CPO powder, and 12 mm disks of MNs without CPO were placed onto the biofilm using sterile forceps. The quantity of CPO powder in the control was estimated to be the amount of CPO powder present in the sample of MNs loaded with CPO. For all experiments, biofilms without any treatments were used as the negative control. The plates were further incubated at 37° C. for 24 h immediately after each treatment. […] The plates were further incubated at 37° C. for 24 h and viable CFU mL−1 were calculated.

## [Ca+2].[O-][O-] [CPO, calcium peroxide]
  effect on number of colonies in biofilm: did not affect the number of colonies
